Data on two molecules can be found in patent publication US20260224720A1, “ECTEINASCIDIN DERIVATIVE ANTIBODY DRUG CONJUGATES” (priority 2023, published 2026).

One data set relates to SKBR3 (Her2 positive). The data set can be described thus: Adherent cells cytotoxicity assay (CellTiter-Glo), SKBR3. The class given is cell-based. The note with it: Homo sapiens, SK-BR-3, 3 to 5 days. As to the method:
(§1) Adherent cells were cultured in a T75 flask to ~50-80% confluency and harvested with trypsin into a single cell suspension. Three to five thousand (3,000-5,000) cells per well were seeded in tissue culture plates in 50 μL/well culture media and incubated at 37° C. for 18-24 hours. Serial dilutions of ADCs in culture media were then dispensed into the plates at 50 μL/well. After plating and treatment, cells were returned to the incubator for an additional 3 to 5 days. CellTiter-Glo reagent was prepared per manufacturer's instructions and added at 100 μL/well to the cultures. CellTiter-Glo allows for relative enumeration of metabolically active cells by quantifying intracellular ATP concentrations. […] Luminescence signals were detected using a standard plate reader and IC50s were calculated by logistic nonlinear regression using GraphPad Prism (GraphPad Software, San Diego, CA).

In data set [1] the test system is Confluent HCC1954 (Her2 positive). The data set can be described thus: Adherent cells cytotoxicity assay (CellTiter-Glo), confluent HCC1954. The class given is cell-based. The note with it: Homo sapiens. A general note: ATP-based viability assays read luminescence as a measure of living cells.
Another data set deals with SUDHL1 (CD30 positive). The data set is described as follows: Suspension cells cytotoxicity assay (CellTiter-Glo), SUDHL1. The class given is cell-based. The note with it: Homo sapiens, SU-DHL-1, 3-5 days. The method, then: Three to five thousand (3,000-5,000) cells per well were seeded in tissue culture plates in 50 μL/well culture media and incubated at 37° C. for 18-24 hours.
Serial dilutions of ADCs in culture media were then dispensed into the plates at 50 μL/well. […] CellTiter-Glo reagent was prepared per manufacturer's instructions and added at 100 μL/well to the cultures. CellTiter-Glo allows for relative enumeration of metabolically active cells by quantifying intracellular ATP concentrations. […] Luminescence signals were detected using a standard plate reader and IC50s were calculated by logistic nonlinear regression using GraphPad Prism (GraphPad Software, San Diego, CA).

The next data set has as its system HCC1954 (Her2 positive). The data set can be described thus: Adherent cells cytotoxicity assay (CellTiter-Glo), HCC1954. The class given is cell-based. The note with it: Homo sapiens, 3 to 5 days. The method, then:
as §1

The conditions of data set [2]: male mice, previously reported; cited from earlier work.

The structures appear in SMILES notation. pIC50: −log10 of the molar value.

As for `COc1ccc2[nH]c3c(c2c1)CCN(C(N1CCCC1)N1CCCC1)[C@]31CS[C@@H]2c3c(OC(C)=O)c(C)c4c(c3[C@H](COC1=O)N1C2[C@H]2c3c(cc(C)c(OC)c3O)C[C@@H](C1O)N2C)OCO4` (some centres unmarked) [Lurbinectedin Derivative 1], the pIC50 with SKBR3 (Her2 positive) is 9.27; in data set [1], 8.43; in the data set with SUDHL1 (CD30 positive), 9.20; in the data set on HCC1954 (Her2 positive), 8.59.
For `COc1cc2c(cc1O)CCN[C@]21CS[C@@H]2c3c(OC(C)=O)c(C)c4c(c3[C@H](COC1=O)N1[C@@H]2[C@H]2c3c(cc(C)c(OC)c3O)C[C@@H]([C@@H]1O)N2C)OCO4` [trabectedin], the “maximum tolerated dose (MTD)” value in data set [2] is given as 0.15 mg/kg.

The pIC50 is the IC50 on a negative log10 scale, so that one unit is a factor of ten. High values mean a small IC50, low ones a large IC50.
